Source: paper PMC8196580, “Identification of Kaurane-Type Diterpenes as Inhibitors of Leishmania Pteridine Reductase I” (Molecules, 2021)
Where two headings read alike, the source gives them in different places.

How the values were obtained:
L. major [1] = test: ChEMBL dataset of pIC50 values against L. major used for the RF model (Table S1); format: cell-based, Leishmania major; note: call rule not given here
L. major [2] = test system: L. major; design: method as in ChEMBL; conditions: ref ChEMBL, cited from earlier work
[3] = Active/Inactive class assigned to the ChEMBL pIC50 value for Random forest model construction, ref ChEMBL
[4] = ChemBL structures with pIC50 values used for Random forest model construction, L. major
[5] = Active/Inactive class assigned to ChemBL structures for Random forest model construction (Table S1)
[6] = ChemBL structures with pIC50 values used for Random forest model construction (Table S1)

| SMILES | Outcome (L. major [1]; [3]) | pIC50 Value (L. major [2]; [4]) | Outcome (L. major [1]; [5]) | pIC50 Value (L. major [2]; [6]) |
| --- | --- | --- | --- | --- |
| CCC/C=C/C=C/c1nc2ccc(OC)cc2n2cccc12 [CHEMBL3260212] | Active | 5.13 | – | – |
| CCC/C=C/C=C/c1nc2cccc(OC)c2n2cccc12 [CHEMBL3260213] | – | – | Active | 5.41 |
| CCCC/C=C/C=C/c1nc2ccccc2n2cccc12 [CHEMBL3260214] | – | – | Active | 5.43 |
| CCCC/C=C/C=C/c1nc2cc(OC)ccc2n2cccc12 [CHEMBL3260215] | – | – | Active | 5.60 |
| CCCC/C=C/C=C/c1nc2ccc(OC)cc2n2cccc12 [CHEMBL3260216] | – | – | Active | 5.36 |
| CCCC/C=C/C=C/c1nc2cccc(OC)c2n2cccc12 [CHEMBL3260217] | Active | 5.24 | – | – |
| C/C=C/C=C/C=C/c1nc2ccccc2n2cccc12 [CHEMBL3260218] | – | – | Active | 5.92 |
| C/C=C/C=C/c1nc2ccccc2n2ccc(OCC)c12 [CHEMBL3260219] | – | – | Active | 5.82 |
| Cc1cccc2nc(-c3ccc(C(=O)N/N=C/c4cccc(O)c4O)cc3)[nH]c12 [CHEMBL3317782] | Inactive | 4.42 | – | – |
| COc1ccc2c(c1)C=C(C(=O)/C=C/c1ccc(Cl)c(Cl)c1)CO2 [CHEMBL3329269] | – | – | Active | 6.00 |
| COc1ccc2c(c1)C=C(/C=C/C(=O)c1ccc(Cl)c(Cl)c1)CO2 [CHEMBL3329270] | – | – | Active | 6.00 |
| CC(C)C1=CC(=O)C2=C(CC[C@H]3C(C)(C)CCC[C@]23C)C1=O [CHEMBL3355361] | – | – | Active | 6.74 |
| CC[C@H](CO)Nc1nc(NCc2cccc(C)c2O)c2ncn(C(C)C)c2n1 [CHEMBL3423079] | Inactive | 4.70 | – | – |
| CC[C@H](CO)Nc1nc(NCc2cc(C)ccc2O)c2ncn(C(C)C)c2n1 [CHEMBL3423080] | – | – | Active | 5.64 |
| CC[C@H](CO)Nc1nc(NCc2ccc(Br)cc2)c2ncn(C(C)C)c2n1 [CHEMBL3423090] | Inactive | 4.71 | – | – |
| CCN(CC)NC(=O)c1ccc(OCc2ccccc2)cc1 [CHEMBL3613383] | Inactive | 4.68 | – | – |
| c1ccc(-c2nc3cnccn3c2-c2ccccc2)cc1 [CHEMBL3634350] | Inactive | 4.58 | – | – |
| COc1ccc(-c2c(-c3ccccc3)nc3cnccn23)cc1 [CHEMBL3634351] | Inactive | 4.76 | – | – |
| O=[N+]([O-])c1ccc(-c2c(-c3ccccc3)nc3cnccn23)cc1 [CHEMBL3634352] | Inactive | 4.56 | – | – |
| CCOC(=O)c1ccc(-c2c(-c3ccccc3)nc3cnccn23)cc1 [CHEMBL3634353] | Inactive | 4.76 | – | – |
| Clc1cccc(-c2c(-c3ccccc3)nc3cnccn23)c1 [CHEMBL3634354] | Inactive | 4.84 | – | – |
| Clc1cc(Cl)cc(-c2c(-c3ccccc3)nc3cnccn23)c1 [CHEMBL3634355] | Inactive | 4.99 | – | – |
| c1ccc(-c2nc3cnccn3c2-c2ccncc2)cc1 [CHEMBL3634356] | Inactive | 4.70 | – | – |

| SMILES | Outcome (L. major [1]; [3]) | pIC50 Value (L. major [2]; [4]) | Outcome (L. major [1]; [5]) | pIC50 Value (L. major [2]; [6]) |
| --- | --- | --- | --- | --- |
| CN(C)CCNc1nccn2c(I)c(-c3ccccc3)nc12 [CHEMBL3634357] | Inactive | 4.62 | – | – |
| CN(C)c1nccn2c(I)c(-c3ccccc3)nc12 [CHEMBL3634358] | Active | 5.17 | – | – |
| Ic1c(-c2ccccc2)nc2c(NCCN3CCOCC3)nccn12 [CHEMBL3634359] | Inactive | 4.97 | – | – |
| CN(C)CCNc1nccn2c(I)c(-c3ccc(F)cc3)nc12 [CHEMBL3634360] | Inactive | 4.61 | – | – |
| CN(C)c1nccn2c(I)c(-c3ccc(F)cc3)nc12 [CHEMBL3634361] | Inactive | 4.00 | – | – |
| Fc1ccc(-c2nc3c(NCCN4CCOCC4)nccn3c2I)cc1 [CHEMBL3634362] | – | – | Active | 5.55 |
| CN(C)CCNc1nccn2c(-c3ccncc3)c(-c3ccccc3)nc12 [CHEMBL3634363] | Inactive | 4.16 | – | – |
| CN(C)c1nccn2c(-c3ccncc3)c(-c3ccccc3)nc12 [CHEMBL3634364] | Inactive | 4.50 | – | – |
| c1ccc(-c2nc3c(NCCN4CCOCC4)nccn3c2-c2ccncc2)cc1 [CHEMBL3634365] | Inactive | 4.63 | – | – |
| CN(C)CCNc1nccn2c(-c3ccncc3)c(-c3ccc(F)cc3)nc12 [CHEMBL3634366] | Inactive | 4.45 | – | – |
| CN(C)c1nccn2c(-c3ccncc3)c(-c3ccc(F)cc3)nc12 [CHEMBL3634367] | Active | 5.19 | – | – |
| Fc1ccc(-c2nc3c(NCCN4CCOCC4)nccn3c2-c2ccncc2)cc1 [CHEMBL3634368] | Inactive | 4.78 | – | – |
| Nc1ccc2ncnc(Nc3ccc(OCc4cccc(F)c4)c(Cl)c3)c2c1 [CHEMBL3637893] | Inactive | 4.98 | – | – |
| O=C(CN1CCOCC1)Nc1ccc2ncnc(Nc3ccc(OCc4cccc(F)c4)c(Cl)c3)c2c1 [CHEMBL3637894] | Inactive | 4.91 | – | – |
| CN1CCN(S(=O)(=O)c2ccc(-c3ccc4c(Nc5ncc(Cl)cn5)ccnc4c3)cc2)CC1 [CHEMBL3637895] | Active | 5.07 | – | – |
| COc1cc(OC)c2c(C)[n+](-c3ccccc3)c(C)cc2c1.[O-][Cl+3]([O-])([O-])[O-] [CHEMBL3706858] | Inactive | 4.58 | – | – |
| COc1cc(OC)c2c(C)[n+](-c3ccccc3)c(C)cc2c1.[Cl-] [CHEMBL3706859] | Inactive | 4.33 | – | – |
| C=C[C@H]1CN2CCc3c([nH]c4ccccc34)[C@@H]2C[C@@H]1C(/C=C/OC)C(=O)OC (some centres unmarked) [CHEMBL3752140] | – | – | Active | 5.52 |
| Cc1ccc(Nc2ncnc3ccc([N+](=O)[O-])cc23)cc1C [CHEMBL3758240] | Inactive | 4.45 | – | – |
| O=C(CCl)N1c2ccccc2Oc2ccc(Cl)cc21 [CHEMBL3758242] | Active | 5.12 | – | – |
| O=C(C(Cl)CCl)N1c2ccccc2Oc2ccccc21 (centres unmarked) [CHEMBL3758248] | Active | 5.02 | – | – |
| O=C(CCl)N1c2ccccc2C=Cc2ccccc21 [CHEMBL3758271] | Inactive | 4.32 | – | – |
| COc1ccccc1Nc1ncnc2ccc([N+](=O)[O-])cc12 [CHEMBL3758369] | – | – | Active | 5.36 |

| SMILES | Outcome (L. major [1]; [3]) | pIC50 Value (L. major [2]; [4]) | Outcome (L. major [1]; [5]) | pIC50 Value (L. major [2]; [6]) |
| --- | --- | --- | --- | --- |
| O=C(CCl)N1c2ccccc2COc2ccc(Cl)cc21 [CHEMBL3758404] | Active | 5.14 | – | – |
| Cc1ccc(Cl)cc1Nc1ncnc2ccc([N+](=O)[O-])cc12 [CHEMBL3758550] | Inactive | 4.35 | – | – |
| COc1ccc(OC)c(Nc2ncnc3ccc([N+](=O)[O-])cc23)c1 [CHEMBL3758611] | Inactive | 4.91 | – | – |
| O=[N+]([O-])c1ccc2ncnc(Nc3ccccc3Cl)c2c1 [CHEMBL3758623] | Active | 5.19 | – | – |
| N#CCC(=O)N1c2ccccc2Oc2ccccc21 [CHEMBL3758694] | Inactive | 4.00 | – | – |
| CSc1ccc(Nc2ncnc3ccc([N+](=O)[O-])cc23)cc1 [CHEMBL3758748] | – | – | Active | 5.73 |
| O=C(CCCl)N1c2ccccc2Oc2ccc(Cl)cc21 [CHEMBL3759105] | Inactive | 4.80 | – | – |
| O=C(CCl)N1c2cc(Cl)ccc2Oc2ccc(Cl)cc21 [CHEMBL3759123] | Active | 5.02 | – | – |
| Cc1ccc(Nc2ncnc3ccc([N+](=O)[O-])cc23)cc1 [CHEMBL3759143] | Inactive | 4.62 | – | – |
| O=C(CBr)N1c2ccccc2Oc2ccc(Cl)cc21 [CHEMBL3759174] | Inactive | 4.00 | – | – |
| O=C(CCCCl)N1c2ccccc2Oc2ccc(Cl)cc21 [CHEMBL3759213] | Inactive | 4.00 | – | – |
| O=C(CCl)N1c2ccccc2Oc2ccc(C(F)(F)F)cc21 [CHEMBL3759243] | Active | 5.02 | – | – |
| O=C(C(Cl)Cl)N1c2ccccc2Oc2ccccc21 [CHEMBL3759299] | Inactive | 4.09 | – | – |
| ClCCN1c2ccccc2Oc2ccc(Cl)cc21 [CHEMBL3759618] | Inactive | 4.00 | – | – |
| O=C(CCl)Nc1cc(Cl)ccc1Oc1ccccc1 [CHEMBL3759632] | Inactive | 4.37 | – | – |
| CCc1ccc(Nc2ncnc3ccc([N+](=O)[O-])cc23)cc1 [CHEMBL3759644] | Inactive | 4.42 | – | – |
| CC(Cl)C(=O)N1c2ccccc2Oc2ccccc21 (centres unmarked) [CHEMBL3759769] | Inactive | 4.00 | – | – |
| O=C(CCCl)N1c2ccccc2Oc2ccccc21 [CHEMBL3759988] | Inactive | 4.41 | – | – |
| CSc1cccc(Nc2ncnc3ccc([N+](=O)[O-])cc23)c1 [CHEMBL3760067] | Inactive | 4.70 | – | – |
| O=[N+]([O-])c1ccc2ncnc(Nc3ccc(Br)cc3)c2c1 [CHEMBL3760107] | Inactive | 4.21 | – | – |
| CC1=C(C(=O)/C=C/c2cccc([N+](=O)[O-])c2)C(c2ccccc2)NC(=O)N1C (centres unmarked) [CHEMBL3785174] | – | – | Active | 5.71 |
